Molecules are shown by their SMILES.

The results in this text go back to ChEMBL document CHEMBL3507680, “University of Dundee, Gates Library screen for HepG2 cell viability”.

A short description of the series: Human HepG2 cell viability assay in 384 well format. Type of series: toxicity, cell-based. On the set-up: dose 125 nL, time 70.5 hour; cytotoxicity at 70.5 h: concentration not given beside the values. As to conditions: HepG2 cells, read-out: Inhibition.
As for `Cc1nc(C2CCNCC2)cc(N2CCCC(C(=O)NCCCO)C2)n1` (stereo not drawn), the cytotoxicity at 70.5 h was determined as 10.6%.

For `Nc1ncncc1-c1noc([C@@H]2CCCN2CCCc2ccccc2)n1`, the cytotoxicity at 70.5 h is -6.26%. As for `CNC(=O)CCN(C)c1nc(-c2ccncc2)nc2c1CCNC2`, the cytotoxicity at 70.5 h is -13.1%.

As for `CCc1noc(C)c1-c1nc(Cc2cccs2)nn1C1CCN(C)CC1`, the cytotoxicity at 70.5 h was -1.49%.

In the case of `CN(C)c1nc2c(c(N(C)Cc3n[nH]c4c3CCCCC4)n1)CCNC2`, the cytotoxicity at 70.5 h was -9.48%. As to `CCCSc1ccccc1NC(=O)N1CCC(N2CCSCC2)CC1`, the cytotoxicity at 70.5 h was found to be 0.648%. For `O=C(O)[C@@H]1CN(CCOCCO)C[C@H]1c1ccccc1`, the cytotoxicity at 70.5 h came to 30%. The result for `COCCC(=O)N1CC2(CCN(Cc3cccc(Cl)c3)CC2)C1` reads -8.68%. With `CNS(=O)(=O)c1cccc(C(C)NCc2ccccc2)c1` (stereo not drawn), the cytotoxicity at 70.5 h was -2.31%. The result for `O=C1CC(c2ccccc2)c2c(n3ccsc3nc2=O)N1` (stereo not drawn) reads -20%. Regarding `CCNc1ncc(C(=O)NCCc2csc(CSC)n2)cn1`, the cytotoxicity at 70.5 h is -4.44%. The result for `CCn1cc(CN2CCCN(C(=O)c3cc(C)no3)CC2)cn1` reads -2.69%; that for `O=C(c1ccno1)N1CCn2cc(CN3CCCCC3)nc2C1`, -2.37%; that for `c1cnc(N2CC[C@@H](N3CCOCC3)[C@@H]2Cc2ccncc2)nc1`, 11.8%. Then `CCc1ccc(C2COCCN2C(=O)Nc2ccc(C#N)cc2)o1` (stereo not drawn), with 47.1%; and `Cc1cc(CC(=O)NCC(O)COc2ccc(F)c(F)c2)no1` (stereo not drawn), with -12%. The result for `COc1cccc(CNC(CN2CCN(C)CC2)c2ccccc2)c1` (stereo not drawn) reads 5.01%; that for `CC(Cn1cccn1)NS(=O)(=O)Cc1ccccc1` (stereo not drawn), 24.2%. Take `CC(O)CN1CC2(CCC1=O)CCN(C(=O)c1cnn(C)c1)CC2` (stereo not drawn): the cytotoxicity at 70.5 h was -1.73%. For `CCNc1cc2c(nn1)CCN(C(=O)c1ccc(C(N)=O)cc1)C2`, the cytotoxicity at 70.5 h was found to be 20.2%. `CN1CCN(C[C@@H]2CN(C(=O)CCc3cn[nH]c3)C[C@@H]2CO)CC1`: the cytotoxicity at 70.5 h is -6.13%. Regarding `COc1ccc(C(C)CCNC2CCN(c3ccccn3)CC2)cc1` (stereo not drawn), the cytotoxicity at 70.5 h was found to be 22%.

For the compound `Cc1cc(NC(=O)CNc2cccc(C(=O)N3CCCC(O)C3)c2)no1` (stereo not drawn), the cytotoxicity at 70.5 h is -3.66%.

Regarding `O=c1cc(Cn2cncn2)nc2n1CCCN(CCN1CCCC1)C2`, the cytotoxicity at 70.5 h was -9.08%. Then `CN(C)c1ncccc1CNC(=O)NCC(c1cccs1)N(C)C` (stereo not drawn), with -23.8%; and `CS(=O)(=O)CC(=O)N1C[C@H]2CCC[C@@]2(COCc2ccncc2)C1`, with -3.98%; and `CN(C)c1ccc(NC(=O)NCc2cccnc2N(C)C)cn1`, with -8.32%. Take `CCc1ncc2c(n1)CN(CC(=O)Nc1cccnc1)CC2`: the cytotoxicity at 70.5 h amounted to 10.9%. The result for `O=C(Cn1ccc2ccc(F)cc21)NC[C@@H]1CCCN2CCCC[C@H]12` reads 8.28%. For the compound `CC(C)CC(CCO)CNC(=O)N1CCCC1(C)C` (stereo not drawn), the cytotoxicity at 70.5 h turned out to be 2.81%. As to `Cc1nc(N2CCCC2)nc2c1CCN(C(=O)N1CCCC1)CC2`, the cytotoxicity at 70.5 h was -8.89%. Take `COc1ccc([C@@H]2CN(c3cc(OC)nc(N)n3)C[C@H]2N(C)C)cc1`: the cytotoxicity at 70.5 h is -3.33%. With `CC1c2ncc(COc3cccnc3)n2CCN1C(=O)C1=CCCCC1` (stereo not drawn), the cytotoxicity at 70.5 h was -14.2%. Consider `O=C(CCc1ccc(O)cc1)N1CCC(Cc2ccc(CO)cc2)C1` (stereo not drawn), for which the cytotoxicity at 70.5 h is -9.62%. Take `Cc1ccccc1C(C)CC(=O)N1CC[C@H](O)C1` (stereo partly drawn): the cytotoxicity at 70.5 h was -2.39%. Then `COc1ccc(C(=O)c2cnc(C(C)C)n2C)cc1`, with 17.7%; and `O=C1CC2(CCCNC2)C(=O)N1Cc1ccc(F)cc1` (stereo not drawn), with -10.9%; and `CSc1ncc(C(=O)NCCn2nccc2C)cn1`, with -2.28%. Then `CCOCCN1CCN(CCOC)CC1C` (stereo not drawn), with -8.63%; and `Cc1cccc(CN2Cc3[nH]nc(COc4cccnc4)c3C2)n1`, with -3.62%; and `COc1ccc(C(C(=O)O)N(C)Cc2c(C)nn(C)c2C)c(C)c1` (stereo not drawn), with -10%. Regarding `CCCn1cc(-c2cc(-c3ccoc3)c(C#N)c(N)n2)c(C)n1`, the cytotoxicity at 70.5 h came to 5.86%.

Regarding `CC(=O)N(C)c1nc(CN2CCCC2Cn2nc(C)cc2C)cs1` (stereo not drawn), the cytotoxicity at 70.5 h is -3.11%. For the compound `CCC(CC)NC(=O)c1ncn2c1CN(CC)S(=O)(=O)c1ccccc1-2`, the cytotoxicity at 70.5 h was -12.8%. As to `O=C(c1nn(-c2ccccc2F)cc1O)N1CCCSCC1`, the cytotoxicity at 70.5 h amounted to 2.69%. With `CCS(=O)(=O)N1CCC2(CCN(CC(=O)N(C)C)C2=O)CC1`, the cytotoxicity at 70.5 h is -1.33%. The result for `CN1CCCN(C(=O)c2nc3sccn3c2-c2ncc[nH]2)CC1` reads -13%. The result for `O=C(Nc1ccc2c(c1)OCCO2)N1CCCC1c1ccco1` (stereo not drawn) reads -10.5%; that for `O=C(NCC[S+]([O-])c1ccccc1)NCC(F)(F)F` (stereo not drawn), -7.27%; that for `CC(C)NC(=O)N[C@H]1C[C@@H](c2nc(-c3ccncc3)no2)N(C)C1`, -5.9%. The result for `COCc1nnc(NC(=O)CN2C(=O)c3ccccc3NC2C(C)C)s1` (stereo not drawn) reads -12.3%; that for `CN(CCc1ccccn1)C(=O)Cn1cc(-c2ccccc2)nn1`, -3.22%. As to `CN(C)S(=O)(=O)N1C[C@@H]2CC[C@H](C1)N(Cc1cccc(C#N)c1)C2`, the cytotoxicity at 70.5 h is -8.84%. Consider `NC(=O)N1CCC2(CC1)CN(c1ncccn1)CCO2`, for which the cytotoxicity at 70.5 h was -7.64%. The result for `O=C(N[C@]12CC1CN(C(=O)c1ccco1)C2)c1ccco1` (stereo partly drawn) reads -2.69%; that for `Cc1nnc(C(C)N2CCc3[nH]c4ccccc4c3C2)o1` (stereo not drawn), -4.16%. Then `CC(C)c1cnc(CN(C)C2CCN(CCc3cnn(C)c3)C2)o1` (stereo not drawn), with -5.18%. As to `O=C(CNc1cc(-n2cnnn2)ccc1F)NCc1ccccc1`, the cytotoxicity at 70.5 h is -118%. The result for `CC(C)CCn1nc2ccc(S(=O)(=O)N3CCOCC3)cn2c1=O` reads -7.21%. Turning to `O=S(=O)(NCCCn1ccc2ccccc21)N1CCCCC1`, the cytotoxicity at 70.5 h is 16.7%. In the case of `Cc1nc2sccn2c1CN(CCCN(C)C)Cc1ccco1`, the cytotoxicity at 70.5 h was -21.2%. The result for `COC1COC2(CCN(S(=O)(=O)c3ccc(F)cc3)CC2)C1` (stereo not drawn) reads 17.1%.

`COc1ccc(F)cc1NC(=O)NCC1(CN2CCOCC2)CC1`: the cytotoxicity at 70.5 h is -0.333%. The result for `NC(=O)C1CCN(c2ncccc2C(=O)N2CCc3ccccc32)C1` (stereo not drawn) reads -5.78%; that for `CCN(CC)C(=O)N1CCN(Cc2cnc(C)nc2)[C@H]2CS(=O)(=O)C[C@H]21`, -17.5%; that for `CSCC(C)(O)CNC(=O)c1cccc(Cl)c1Cl` (stereo not drawn), -5.93%. With `Cc1noc(C)c1CN1CCC2(CC1)CCN(C(=O)c1cscn1)C2`, the cytotoxicity at 70.5 h came out at 10.4%. Regarding `N#CCc1cccc(C(=O)N2CCN(CC(O)c3ccccc3)CC2)c1` (stereo not drawn), the cytotoxicity at 70.5 h came to 2.39%. Then `CO[C@H]1CN(S(=O)(=O)c2ccc(C)cc2)C[C@@]12CCCO2`, with -6.6%. For the compound `CCn1c(CN(C)Cc2cnc(C)s2)nc2c(F)cccc21`, the cytotoxicity at 70.5 h is -24.5%.

For the compound `O=C(Cn1nc2c(cc1=O)CSCC2)NC(Cc1ccccc1)C(=O)O` (stereo not drawn), the cytotoxicity at 70.5 h stood at 23%. Then `COCC1c2nnn(CC3CC3)c2CCN1C(=O)c1ccncn1` (stereo not drawn), with 9.24%. Take `Cn1c(Nc2cn[nH]c2)c(C#N)c(=O)n(C)c1=O`: the cytotoxicity at 70.5 h was determined as 11.5%. The result for `COCCN(Cc1ccc(F)cc1Cl)C(=O)c1ccccn1` reads 9.84%. For `CCCN1CC2(CCN(C)CC2)CC1C(=O)NCCn1cccn1` (stereo not drawn), the cytotoxicity at 70.5 h was -6%.

With `CC(C)Cc1cc(C(=O)O)nc2[nH]c(=O)[nH]c(=O)c12`, the cytotoxicity at 70.5 h is -14.3%.

Consider `CN(Cc1ccco1)C[C@H]1OC[C@@H]2CCN(Cc3ccncc3)C[C@@H]21`, for which the cytotoxicity at 70.5 h was determined as 15.7%.

In the case of `Cc1cccc(CN2C[C@@H]3COC[C@]3(COCC(=O)N(C)C)C2)n1`, the cytotoxicity at 70.5 h is -3.44%.

As to `CCS(=O)(=O)c1ccc2oc([C@H]3CCN(Cc4ccccc4)C3)nc2c1`, the cytotoxicity at 70.5 h was found to be 2.59%. Then `CC1CN(C2CCN(Cc3nccn3CC(F)(F)F)CC2)CCO1` (stereo not drawn), with -9.54%.

Consider `CCC(c1ccc(F)cc1)S(=O)(=O)CCO` (stereo not drawn), for which the cytotoxicity at 70.5 h amounted to 15.3%. As for `Oc1ccccc1CN1CCCCCC1c1cccs1` (stereo not drawn), the cytotoxicity at 70.5 h is -5.04%. Then `CCN1CCC(CC(=O)NCCc2nc(C)c(Cl)s2)CC1`, with -6.45%. Then `CCc1ccccc1CNC(=O)NCc1cnn(C)c1`, with -11.8%. As to `COc1cccc(-c2nc(CNCCCn3cccn3)cs2)c1`, the cytotoxicity at 70.5 h was -3.21%.

With `CCCOc1cccc(C(=O)Oc2cc(=O)n3cccc(C)c3n2)c1`, the cytotoxicity at 70.5 h is -12.8%. The result for `CCn1cc(NC(=O)NCCN2CCCc3ccccc32)cn1` reads 0.821%; that for `O=C1N(C2CCCCC2)C[C@H]2CN(C3CCC3)CCN12`, 9.88%; that for `CCn1nc(C)c(CN2CCC(c3ccn[nH]3)C2)c1C` (stereo not drawn), 4.91%.

For the compound `CC1CCN(C(=O)C(C)N2CCc3[nH]nc(C(F)(F)F)c3C2)CC1` (stereo not drawn), the cytotoxicity at 70.5 h is -8.79%. Turning to `CC(C)CNC(=O)[C@H]1CCS(=O)(=O)[C@@H]2CN(CC(C)C)C[C@H]12`, the cytotoxicity at 70.5 h is -1.81%.

In the case of `CCOCc1cnc2n1CCN(C(=O)c1cn(C)c3ccccc13)C2C` (stereo not drawn), the cytotoxicity at 70.5 h was 8.97%. As for `N#Cc1c2n(c3c(=O)[nH]cnc13)CCCC2`, the cytotoxicity at 70.5 h is -6.51%. The result for `CCn1ncc(-c2cc(C(F)F)n3nc(CCC(=O)O)nc3n2)c1C` reads -1.79%; that for `Cc1ccc(C(=O)N2C[C@@H]3CC[C@H](C2)N(CC2CCC2)C3)s1`, 7.49%; that for `CNC(=O)[C@H]1C[C@@H]2CN(C(=O)c3ccco3)C[C@@H]2N1S(C)(=O)=O`, -7.68%. On to `Cc1noc(CN2CCC(c3ccnn3CCO)CC2)n1`, for which the cytotoxicity at 70.5 h is -13.4%. Consider `COC1CCN(C(=O)Cc2csc(-c3ccccc3)n2)CC1`, for which the cytotoxicity at 70.5 h was -5.23%.
